Molecules are shown by their SMILES.

As usually defined, the IC50 is the midpoint of a concentration-inhibition curve.

Chain of hPAD4 enzyme (Q9UM07 whole entry): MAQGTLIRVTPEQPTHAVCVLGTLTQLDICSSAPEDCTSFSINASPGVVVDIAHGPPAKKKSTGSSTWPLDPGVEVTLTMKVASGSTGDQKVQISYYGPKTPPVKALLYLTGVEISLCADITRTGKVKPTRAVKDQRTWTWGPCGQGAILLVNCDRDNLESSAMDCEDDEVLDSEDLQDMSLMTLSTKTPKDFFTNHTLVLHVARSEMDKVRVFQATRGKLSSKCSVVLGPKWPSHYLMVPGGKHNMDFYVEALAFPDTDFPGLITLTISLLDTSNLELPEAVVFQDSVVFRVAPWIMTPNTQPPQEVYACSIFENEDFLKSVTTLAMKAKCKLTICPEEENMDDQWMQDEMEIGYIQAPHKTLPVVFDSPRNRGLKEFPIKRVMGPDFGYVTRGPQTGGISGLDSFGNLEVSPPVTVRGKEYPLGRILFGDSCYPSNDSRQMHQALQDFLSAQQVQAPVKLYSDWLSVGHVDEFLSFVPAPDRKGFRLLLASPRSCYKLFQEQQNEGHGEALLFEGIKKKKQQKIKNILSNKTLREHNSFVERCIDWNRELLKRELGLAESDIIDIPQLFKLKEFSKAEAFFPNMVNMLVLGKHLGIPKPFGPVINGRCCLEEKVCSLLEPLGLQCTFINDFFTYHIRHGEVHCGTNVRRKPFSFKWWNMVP

The target in this assay is hPAD4 enzyme (Homo sapiens (Human), UniProt Q9UM07). Kind of assay: RFMS2 assay (RapidFire mass spectrometry, TSTGGRQGSHH peptide substrate). Type of assay: biochemical. Conditions: 35 nM recombinant human PAD4, 500 μM TSTGGRQGSHH peptide, 30 minutes at room temperature; read-out: RFMS 2 IC50. As for the experimental part:
Stock compounds were dissolved and stored in 100% DMSO. Compound solutions were prepared via serial dilution at 3-fold intervals in DMSO with top compound concentration at 20 μM in each assay. 0.25 μl of compound solution was transferred from the compound plate to the assay plate by using an acoustic dispenser.
• Total reaction volume: 25 μl • Assay buffer: […] pH 7.4, 200 mM NaCl, 2 mM CaCl2, 5 mM DTT • 35 nM recombinant human PAD4 • 500 μM TSTGGRQGSHH peptide • 1.2% DMSO • Stop solution: 10% formic acid
Reaction mixtures were incubated at room temperature for 30 minutes. 10 μl each of the reaction mixtures was then mixed with 40 μl of 10% formic acid in a microtiter plate. The plate was frozen at −80° C. before shipping out on dry ice for RapidFire mass spectroscopy analysis.
Thawed samples were loaded onto the Rapid Fire 300 system (Agilent) wherein they were first sipped for 250 ms and then loaded onto a Agilent “C” (C18) cartridge using a mobile phase of water containing 0.09% formic acid/0.01% trifluoroacetic acid for 3000 ms desalting flowing at a rate of 1.5 ml/min. Once the samples were loaded and washed, a mobile phase of acetonitrile containing 0.09% formic acid/0.01% trifluoroacetic acid was used to elute the samples directly onto a Sciex API4000 triple quadrupole mass spectrometer for 3000 ms at a flow rate of 1.25 ml/min.
MRM transitions for substrate and product were monitored in positive ESI mode at m/z=562.3/969.7 and m/z=562.8/541.3 respectively. The dwell time for each transition was set at 100 ms, and the ESI voltage was used at 5500 with a source temperature of 650° C. Extracted ion peaks for each transition were integrated using the Rapid Fire Integrator software.
Compounds having an activity designated as “A” provided an IC50≤10 nM; compounds having an activity designated as “B” provided an IC50 11-100 nM; compounds having an activity designated as “C” provided an IC50 101-500 nM; compounds having an activity designated as “D” provided an IC50 501-1000 nM; compounds having an activity designated as “E” provided an IC50>1000 nM.
As for `Cn1c(-c2cc3ccc(Cl)nc3n2CC2CC2)nc2cc3c(cc21)CCN(C[C@H](N)CF)C3=O` [Example 56, (S)-6-(2-amino-3-fluoropropyl)-2-(6-chloro-1-(cyclopropylmethyl)-1H-pyrrolo[2,3-b]pyridin-2-yl)-1-methyl-1,6,7,8-tetrahydro-5H-imidazo[4,5-g]isoquinolin-5-one], the half-inhibitory concentration (IC50) lay in the range of 101 to 500 nM. In the case of `Cn1c(-c2cc3ccc(C4CC4)nc3n2CC2CC2)nc2cc3c(cc21)CCN(C[C@H](N)CF)C3=O` [Example 59, (S)-6-(2-amino-3-fluoropropyl)-2-(6-cyclopropyl-1-(cyclopropylmethyl)-1H-pyrrolo[2,3-b]pyridin-2-yl)-1-methyl-1,6,7,8-tetrahydro-5H-imidazo[4,5-g]isoquinolin-5-one], the IC50 fell in the range of 101 to 500 nM. As to `COc1ccc2cc(-c3nc4cc5c(cc4n3C)CCN(C[C@H](N)CF)C5=O)n(CC3CC3)c2n1` [Example 62, (S)-6-(2-amino-3-fluoropropyl)-2-(1-(cyclopropylmethyl)-6-methoxy-1H-pyrrolo[2,3-b]pyridin-2-yl)-1-methyl-1,6,7,8-tetrahydro-H-imidazo[4,5-g]isoquinolin-5-one], the IC50 fell in the range of 101 to 500 nM. Turning to `CNC(=O)c1ccc2cc(-c3nc4cc5c(cc4n3C)CCN(C[C@H](N)CF)C5=O)n(CC3CC3)c2n1` [Example 63, (S)-2-(6-(2-amino-3-fluoropropyl)-1-methyl-5-oxo-5,6,7,8-tetrahydro-1H-imidazo[4,5-g]isoquinolin-2-yl)-1-(cyclopropylmethyl)-N-methyl-1H-pyrrolo[2,3-b]pyridine-6-carboxamide], the IC50 is 501 to 1000 nM.

As for `CN(C)C(=O)c1ccc2cc(-c3nc4cc5c(cc4n3C)CCN(C[C@H](N)CF)C5=O)n(CC3CC3)c2n1` [Example 64, (S)-2-(6-(2-amino-3-fluoropropyl)-1-methyl-5-oxo-5,6,7,8-tetrahydro-1H-imidazo[4,5-g]isoquinolin-2-yl)-1-(cyclopropylmethyl)-N,N-dimethyl-1H-pyrrolo[2,3-b]pyridine-6-carboxamide], the IC50 fell in the range of 501 to 1000 nM. The figure for `COc1c(F)ccc2cc(-c3nc4cc5c(cc4n3C)CCN(C[C@H](N)CF)C5=O)n(CC3CC3)c12` [Example 66, (S)-6-(2-amino-3-fluoropropyl)-2-(1-(cyclopropylmethyl)-6-fluoro-7-methoxy-1H-indol-2-yl)-1-methyl-1,6,7,8-tetrahydro-5H-imidazo[4,5-g]isoquinolin-5-one] is 101 to 500 nM; for `Cn1c(-c2cc3ccc(C(=O)O)cc3n2CC2CC2)nc2cc3c(cc21)CCN(C[C@H](N)CF)C3=O` [Example 67, (S)-2-(6-(2-amino-3-fluoropropyl)-1-methyl-5-oxo-5,6,7,8-tetrahydro-1H-imidazo[4,5-g]isoquinolin-2-yl)-1-(cyclopropylmethyl)-1H-indole-6-carboxylic acid] it is above 1000 nM. For `CN(C)c1cccc2cc(-c3nc4cc5c(cc4n3C)CCN(C[C@H](N)CF)C5=O)n(CC3CC3)c12` [Example 69, (S)-6-(2-amino-3-fluoropropyl)-2-(1-(cyclopropylmethyl)-7-(dimethylamino)-1H-indol-2-yl)-1-methyl-1,6,7,8-tetrahydro-5H-imidazo[4,5-g]isoquinolin-5-one] the value was above 1000 nM; for `Cn1c(-c2cc3cccc(N4CCOCC4)c3n2CC2CC2)nc2cc3c(cc21)CCN(C[C@H](N)CF)C3=O` [Example 70], above 1000 nM; for `C[C@@H](N)CN1CCc2cc3c(cc2C1=O)nc(-c1cc2ccccc2n1CC1CCC1)n3C` [Example 71, (R)-6-(2-aminopropyl)-2-(1-(cyclobutylmethyl)-1H-indol-2-yl)-1-methyl-1,6,7,8-tetrahydro-5H-imidazo[4,5-g]isoquinolin-5-one], 101 to 500 nM. The figure for `C[C@@H](N)CN1CCc2cc3c(cc2C1=O)nc(-c1cc2ccccc2n1CC1CCCC1)n3C` [Example 72, (R)-6-(2-aminopropyl)-2-(1-(cyclopentylmethyl)-1H-indol-2-yl)-1-methyl-1,6,7,8-tetrahydro-5H-imidazo[4,5-g]isoquinolin-5-one] is 101 to 500 nM; for `C[C@@H](N)CN1CCc2cc3c(cc2C1=O)nc(-c1cc2ccccc2n1CC12CC(C1)C2)n3C` [Example 73, (R)-6-(2-aminopropyl)-2-(1-(bicyclo[1.1.1]pentan-1-ylmethyl)-1H-indol-2-yl)-1-methyl-1,6,7,8-tetrahydro-5H-imidazo[4,5-g]isoquinolin-5-one] it is above 1000 nM.

For the compound `CC(C)Cn1c(-c2nc3cc4c(cc3n2C)CCN(C[C@@H](C)N)C4=O)cc2ccccc21` [Example 74, (R)-6-(2-aminopropyl)-2-(1-isobutyl-1H-indol-2-yl)-1-methyl-1,6,7,8-tetrahydro-5H-imidazo[4,5-g]isoquinolin-5-one], the IC50 was in the range of 501 to 1000 nM. For `COC1CC(Cn2c(-c3nc4cc5c(cc4n3C)CCN(C[C@@H](C)N)C5=O)cc3ccccc32)C1` (stereo partly drawn) [Example 75, (R)-6-(2-aminopropyl)-2-(1-((3-methoxycyclobutyl)methyl)-1H-indol-2-yl)-1-methyl-1,6,7,8-tetrahydro-5H-imidazo[4,5-g]isoquinolin-5-one] the value was 501 to 1000 nM; for `COCCn1c(-c2nc3cc4c(cc3n2C)CCN(C[C@@H](C)N)C4=O)cc2ccccc21` [Example 76, (R)-6-(2-aminopropyl)-2-(1-(2-methoxyethyl)-1H-indol-2-yl)-1-methyl-1,6,7,8-tetrahydro-5H-imidazo[4,5-g]isoquinolin-5-one], above 1000 nM; for `C[C@@H](N)CN1CCc2cc3c(cc2C1=O)nc(-c1cc2ccccc2n1CCC1CC1)n3C` [Example 77, (R)-6-(2-aminopropyl)-2-(1-(2-cyclopropylethyl)-1H-indol-2-yl)-1-methyl-1,6,7,8-tetrahydro-5H-imidazo[4,5-g]isoquinolin-5-one], 101 to 500 nM. For `C[C@@H](N)CN1CCc2cc3c(cc2C1=O)nc(-c1cc2ccccc2n1Cc1ccccc1)n3C` [Example 78, (R)-6-(2-aminopropyl)-2-(1-benzyl-1H-indol-2-yl)-1-methyl-1,6,7,8-tetrahydro-5H-imidazo[4,5-g]isoquinolin-5-one] the value was 101 to 500 nM. The figure for `CCn1c(-c2nc3cc4c(cc3n2C)CCN(C[C@@H](C)N)C4=O)cc2cccnc21` [Example 79, (R)-6-(2-aminopropyl)-2-(1-ethyl-1H-pyrrolo[2,3-b]pyridin-2-yl)-1-methyl-1,6,7,8-tetrahydro-5H-imidazo[4,5-g]isoquinolin-5-one] is above 1000 nM; for `C[C@@H](N)CN1CCc2cc3c(cc2C1=O)nc(-c1cc2ccccc2n1Cc1cccnc1)n3C` [Example 80, (R)-6-(2-aminopropyl)-1-methyl-2-(1-(pyridin-3-ylmethyl)-1H-indol-2-yl)-1,6,7,8-tetrahydro-5H-imidazo[4,5-g]isoquinolin-5-one] it is 101 to 500 nM; for `C[C@@H](N)CN1CCc2cc3c(cc2C1=O)nc(-c1cc2ccccc2n1Cc1ccncc1)n3C` [Example 81, (R)-6-(2-aminopropyl)-1-methyl-2-(1-(pyridin-4-ylmethyl)-1H-indol-2-yl)-1,6,7,8-tetrahydro-5H-imidazo[4,5-g]isoquinolin-5-one] it is above 1000 nM. `C=CCn1c(-c2nc3cc4c(cc3n2C)CCN(C[C@@H](C)N)C4=O)cc2ccccc21` [Example 82, (R)-2-(1-allyl-1H-indol-2-yl)-6-(2-aminopropyl)-1-methyl-1,6,7,8-tetrahydro-5H-imidazo[4,5-g]isoquinolin-5-one]: the IC50 is 501 to 1000 nM.

Turning to `Cc1ccc2cc(-c3nc4cc5c(cc4n3C)CCN(C[C@@H](C)N)C5=O)n(CC3CCC3)c2c1` [Example 83], the IC50 lay within 101 to 500 nM. For `C[C@@H](N)CN1CCc2cc3c(cc2C1=O)nc(-c1cc2ccccc2n1Cc1ccccn1)n3C` [Example 84, (R)-6-(2-aminopropyl)-1-methyl-2-(1-(pyridin-2-ylmethyl)-1H-indol-2-yl)-1,6,7,8-tetrahydro-5H-imidazo[4,5-g]isoquinolin-5-one] the value was 101 to 500 nM; for `C[C@@H](O)CN1CCc2cc3c(cc2C1=O)nc(-c1cc2ccccc2n1CC1CC1)n3C` [Example 85, (R)-2-(1-(cyclopropylmethyl)-1H-indol-2-yl)-6-(2-hydroxypropyl)-1-methyl-1,6,7,8-tetrahydro-5H-imidazo[4,5-g]isoquinolin-5-one], above 1000 nM; for `COCCn1c(-c2nc3cc4c(cc3n2C)CCN(C[C@@H](C)N)C4=O)cc2cccc(C)c21` [Example 87, (R)-6-(2-aminopropyl)-2-(1-(2-methoxyethyl)-7-methyl-1H-indol-2-yl)-1-methyl-1,6,7,8-tetrahydro-5H-imidazo[4,5-g]isoquinolin-5-one], 501 to 1000 nM.

The values are drawn from patent US20250346592A1 (Celgene Corporation, priority 2022, published 2025).
